Parameters: species or system patients
Details: human, in vivo
Description: The intrapelvic perfusion therapy with cancer therapeutic agent of the present invention was carried out as explained below.
The perfusion was continued 30 minutes with keeping the difference between injection and aspiration flow rate was kept 20-25 [ml/min]. After performing this intrapelvic perfusion therapy, the blood of the intrapelvic circulation was dialyzed for 30 min.

N.N.[Cl][Pt][Cl] [Cisplatin]
percentage of drug leading from pelvic to systemic compartment during drug infusion: about 20%

Reference: patent publication US7914478B2, “Intrapelvic perfusion therapy with cancer therapeutic agent and apparatus for intrapelvic perfusion with cancer therapeutic agent” (priority 2002, dated 2011)
